pKi: −log10 of the molar value.
Columns and labels:
rat mGlu2 receptor = target: T1, rat mGlu2 receptor (Rattus norvegicus, UniProt P31421); assay: [3H]-LY354740 binding on mGlu2 transfected CHO cell membranes
T1 construct: expressed in transfected cells; host or cells: CHO cells, stably transfected with pcD1mGR2 (pcDNA I-amp), G-418 selected; membranes used
T1 sequence (P31421 19-872): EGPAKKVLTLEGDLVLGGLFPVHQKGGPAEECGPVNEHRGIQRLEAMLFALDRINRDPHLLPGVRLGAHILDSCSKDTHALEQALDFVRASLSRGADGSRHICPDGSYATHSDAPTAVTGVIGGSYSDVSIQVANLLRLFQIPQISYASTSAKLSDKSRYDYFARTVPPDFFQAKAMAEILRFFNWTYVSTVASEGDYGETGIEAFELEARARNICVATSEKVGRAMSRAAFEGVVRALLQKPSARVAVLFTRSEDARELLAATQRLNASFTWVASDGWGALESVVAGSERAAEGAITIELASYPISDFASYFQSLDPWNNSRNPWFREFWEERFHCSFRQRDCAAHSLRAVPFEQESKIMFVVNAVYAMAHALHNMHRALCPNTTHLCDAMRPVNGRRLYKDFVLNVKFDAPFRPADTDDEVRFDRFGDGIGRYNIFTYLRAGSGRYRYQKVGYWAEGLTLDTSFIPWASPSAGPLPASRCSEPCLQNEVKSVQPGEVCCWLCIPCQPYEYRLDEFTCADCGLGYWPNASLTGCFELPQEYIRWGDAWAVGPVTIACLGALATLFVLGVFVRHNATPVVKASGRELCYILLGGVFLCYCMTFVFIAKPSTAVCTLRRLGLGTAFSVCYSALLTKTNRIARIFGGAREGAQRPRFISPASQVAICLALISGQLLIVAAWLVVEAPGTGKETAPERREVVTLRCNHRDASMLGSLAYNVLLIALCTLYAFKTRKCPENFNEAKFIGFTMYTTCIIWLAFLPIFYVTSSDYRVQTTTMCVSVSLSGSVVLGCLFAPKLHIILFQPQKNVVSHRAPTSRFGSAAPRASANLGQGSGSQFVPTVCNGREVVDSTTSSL

Row | melting point | pKi (rat mGlu2 receptor) | Compound
1 | > 250 °C | 7.68 | CSc1nccn1-c1cccc(C2=Nc3cc(O)c(-c4ccccc4F)cc3NC(=O)C2)c1 [Example 81, 8-(2-Fluoro-phenyl)-7-hydroxy-4-[3-(2-methylsulfanyl-imidazol-1-yl)-phenyl]-1,3-dihydro-benzo[b][1,4]diazepin-2-one]
2 | > 250 °C | 7.55 | O=C1CC(c2cccc(-n3ccnn3)c2)=Nc2cc(O)c(-c3ccccc3F)cc2N1 [Example 75, 8-(2-Fluoro-phenyl)-7-hydroxy-4-(3-[1,2,3]triazol-1-yl-phenyl)-1,3-dihydro-benzo[b][1,4]diazepin-2-one]
3 | 237 °C | 7.82 | Cc1cc(-c2cccc(C3=Nc4cc(O)c(-c5ccccc5F)cc4NC(=O)C3)c2)on1 [Example 89, 8-(2-Fluoro-phenyl)-7-hydroxy-4-[3-(3-methyl-isoxazol-5-yl)-phenyl]-1,3-dihydro-benzo[b][1,4]diazepin-2-one]
4 | 241 °C | 7.92 | COc1cc2c(cc1-c1cc(F)ccc1F)NC(=O)CC(c1cccc(-n3ccnn3)c1)=N2 [Example 83, 8-(2,5-Difluoro-phenyl)-7-methoxy-4-(3-[1,2,3]triazol-1-yl-phenyl)-1,3-dihydro-benzo[b][1,4]diazepin-2-one]
5 | > 250 °C | 6.97 | Cc1nccn1-c1cccc(C2=Nc3cc(O)c(-c4ccccc4F)cc3NC(=O)C2)c1 [Example 79, 8-(2-Fluoro-phenyl)-7-hydroxy-4-[3-(2-methyl-imidazol-1-yl)-phenyl]-1,3-dihydro-benzo[b][1,4]diazepin-2-one]
6 | 227 °C | 7.74 | O=C1CC(c2cccc(-n3ccnc3)c2)=Nc2cc(CO)c(C#Cc3ccccc3)cc2N1 [Example 32, 7-Hydroxymethyl-4-(3-imidazol-1-yl-phenyl)-8-phenylethynyl-1,3-dihydro-benzo[b][1,4]diazepin-2-one]

The next lines start with the compound.

Row | Compound | melting point | pKi (rat mGlu2 receptor)
7 | N#Cc1cccc(C2=Nc3cc(CC(N)=O)c(C#Cc4ccccc4)cc3NC(=O)C2)c1 [Example 17, 2-[4-(3-Cyano-phenyl)-2-oxo-8-phenylethynyl-2,3-dihydro-1H-benzo[b][1,4]diazepin-7-yl]-acetamide] | 250 °C (dec.) | 7.43
8 | COc1cc2c(cc1-c1ccccc1F)NC(=O)CC(c1ccc(C#N)s1)=N2 [Example 69] | > 250 °C | 6.77
9 | O=C1CC(c2cccc(-n3ccnc3)c2)=Nc2cc(N3CCC(OCCO)CC3)c(-c3ccc(F)cc3)cc2N1 [Example 45, 8-(4-Fluoro-phenyl)-7-[4-(2-hydroxy-ethoxy)-piperidin-1-yl]-4-(3-imidazol-1-yl-phenyl)-1,3-dihydro-benzo[b][1,4]diazepin-2-one] | 225 to 227 °C | 7.00
10 | COc1cc2c(cc1C#Cc1ccccc1)NC(=O)CC(c1cccc(C#N)c1)=N2 [Example 20, 3-(8-Methoxy-4-oxo-7-phenylethynyl-4,5-dihydro-3H-benzo[b][1,4]diazepin-2-yl)-benzonitrile] | > 250 °C | 7.34
11 | COCCOc1cc2c(cc1C#Cc1ccccc1)NC(=O)CC(c1cccc(-n3ccnc3)c1)=N2 [Example 27, 4-(3-Imidazol-1-yl-phenyl)-7-(2-methoxy-ethoxy)-8-phenylethynyl-1,3-dihydro-benzo[b][1,4]diazepin-2-one] | 187 to 189 °C | 7.92
12 | O=C1CC(c2cccc(-n3ccnc3)c2)=Nc2cc(CO)c(C#Cc3ccc(F)cc3)cc2N1 [Example 37, 8-(4-Fluoro-phenylethynyl)-7-hydroxymethyl-4-(3-imidazol-1-yl-phenyl)-1,3-dihydro-benzo[b][1,4]diazepin-2-one] | 234 °C (dec.) | 8.05
13 | N#Cc1cccc(C2=Nc3cc(OCC4COC(=O)O4)c(C#Cc4ccccc4)cc3NC(=O)C2)c1 (racemic) [Example 28, [RS]-3-[4-Oxo-8-(2-oxo-[1,3]dioxolan-4-ylmethoxy)-7-phenylethynyl-4,5-dihydro-3H-benzo[b][1,4]diazepin-2-yl]-benzonitrile] | 222 °C (dec.) | 7.46
14 | COCCOc1cc2c(cc1C#Cc1ccccc1)NC(=O)CC(c1cccc(I)c1)=N2 [Example 25] | 192 °C (dec.) | 7.68

— patent publication US6407094B1, “Glutamate receptor antagonists” (Hoffmann-la Roche Inc., priority 1999, dated 2002)
